From patent US20060217390A1, “Cycloalkl, aryl and heteroaryl amino isothiazoles for the treatment of Hepatitis C virus” (priority 2005, published 2006)
Read-outs that look alike come from different tables or passages of the source.

What was measured:
[1] = tested on: Huh-7 cells
Source text: A Huh-7 cell line carrying a luciferase reporter gene (driven by a HIV LTR promoter) stably integrated into the chromosome was used to analyze the cytotoxic effect of the selected compounds. This cell line (LTR-luc) was maintained in DMEM medium with 10% FBS. Design of the cytotoxicity assay was similar to that of the HCV replicon assay.

[2] = tested on: HCV Con1 subgenomic replicon in Huh-7 cells (NK/luc-ubi-neo); assay: HCV replicon assay (luciferase reporter); type: cell-based; details: anti-HCV activity, class symbols; read-out: Range of EC50 in HCV replicon assay
Description: A human hepatoma cell line (Huh-7) containing replicating HCV Con1 subgenomic replicon with a luciferase reporter gene (luc-ubi-neo) was used to evaluate anti-HCV activity of the compounds. In this assay, the level of luciferase signal correlates directly with the viral RNA replication. The HCV replicon-reporter cell line (NK/luc-ubi-neo) was cultured in DMEM medium supplemented with 10% fetal bovine serum and 0.5 mg/ml Geneticin (G418). Cells were maintained in a subconfluent state to ensure high levels of HCV replicon RNA synthesis.
To evaluate the antiviral activity of compounds, serial dilutions were prepared with concentrations ranging from 0.14 to 300 μM. Diluted compounds were transferred to a 96-well plate followed by the addition of replicon cells (6000 cells per well). Cells were incubated with the compounds for 48 hours after which luciferase activity was measured.

[3] = molecular target: T1, HCV replicase complexes (Hepatitis C virus genotype 1b, UniProt Q9WMX2); assay: In vitro HCV replicase complex assay; type: biochemical; details: crude membrane fraction of I389/NS3-3 replicon cells
T1 construct: viral non-structural proteins (NS3, NS4A, NS4B, NS5A and NS5B); expressed in transfected cells; host or cells: HCV subgenomic replicon cell line (I389/NS3-3)
T1 sequence (Q9WMX2 2420-3010, one chain of several): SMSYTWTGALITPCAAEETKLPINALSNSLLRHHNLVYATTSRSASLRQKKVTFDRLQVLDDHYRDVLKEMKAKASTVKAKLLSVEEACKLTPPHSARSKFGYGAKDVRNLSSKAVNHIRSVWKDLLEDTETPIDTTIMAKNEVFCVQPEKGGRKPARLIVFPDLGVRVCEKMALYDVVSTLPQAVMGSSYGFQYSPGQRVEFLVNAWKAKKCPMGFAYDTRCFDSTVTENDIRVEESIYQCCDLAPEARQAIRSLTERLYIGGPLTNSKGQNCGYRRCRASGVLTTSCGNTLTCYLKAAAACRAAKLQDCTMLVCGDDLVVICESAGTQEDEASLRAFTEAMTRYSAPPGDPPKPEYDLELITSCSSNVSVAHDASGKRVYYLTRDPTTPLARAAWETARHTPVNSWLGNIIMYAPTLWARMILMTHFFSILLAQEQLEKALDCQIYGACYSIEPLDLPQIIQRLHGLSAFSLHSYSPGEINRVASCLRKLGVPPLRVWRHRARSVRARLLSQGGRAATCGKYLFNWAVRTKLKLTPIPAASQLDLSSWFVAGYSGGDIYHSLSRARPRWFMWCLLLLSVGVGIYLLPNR
Description: Crude membrane fraction containing the replicase complexes (RC) was isolated from the HCV subgenomic replicon cell line (I389/NS3-3) (Lohmann et al., Science 285:110-113, 1999) through Dounce homogenization and high-speed centrifugation (Lai et al., J. Virol. 73:2295-2300). Standard assay mixtures contained 50 mM HEPES (pH 7.3), 10 mM KCl, 10 mM MgCl2, 20 units of ribonuclease inhibitor, 10 μg/ml actinomycin D, 0.5 mM of ATP, GTP, CTP, 10 μCi of [α-^33P] UTP and 0.5 μl of the membrane fraction in a total volume of 20 μl. To determine the inhibitory effect of compounds on the HCV replicase complexes, pre-incubation of the RC membrane fraction with tested compounds was performed in a reaction mixture at 4° C. for 15 minutes. The reaction was then initiated by the addition of the radiolabeled UTP and cold nucleotides and incubated at 30° C. for 1 hour. Products were extracted with phenol/chloroform, precipitated with ethanol, and separated on a 1% agarose gel. After electrophoresis, the gel was dried prior to autoradiography. Radioactivity incorporated into viral RNA was quantitated by using a Phosphorimager (Amersham Biosciences Corp., Piscataway, N.J.) and was used to determine the IC50 value. A number of the exemplary compounds were potent inhibitors that blocked viral RNA synthesis catalyzed by HCV replicase complexes, with IC50 values in the nM range (Table 2).

[4] = tested on: parental replicon cells (I389/NS3-3); assay: Sensitivity of parental (wild-type) replicon cells, HCV replicon RNA by quantitative RT-PCR; type: cell-based; details: Wild-type replicon cell line; for EC50: Hepatitis C virus, HCV replicon RNA by RT-PCR, 72 hours of treatment; for Fold over wild-type: fold of EC50
Description: (§1) A replicon-containing cell line (I389/NS3-3) was used to select the resistant replicons against Compound 1 (Lohmann et al., Science 285:110-113, 1999). Replicon cells were plated in a 100 mm dish, under a subconfluent condition (approximately at 40% confluency). After 24 hours, Compound 1 was added to the cells with the final concentration of 2 μM in the medium containing 1 mg of G418 per ml. After 3 weeks, colonies of cells resistant to Compound 1 were isolated and expanded. Three independent cell lines (w1, w3 and w4) with growth rate similar to that of the parental replicon cells were selected to test for their sensitivity to Compound 1.
(§2) To confirm that viral RNAs in the selected cell lines were resistant to Compound 1, the cells were treated with the compound with concentrations from 0.05 to 5 μM. After 72-hours of treatment, cells were lysed and the cell lysates were diluted with RNase-free water, from which 5 μl was used to quantify the HCV replicon RNA by using real-time quantitative reverse transcriptase (RT) PCR assay (Cheney et al., Virology 297:298-306, 2002). Same quantitative RT-PCR protocol was used to determine the level of the cellular glyceraldhehyde-3-phosphate dehydrogenase (GAPDH) RNA in the same cell lysate, which served as an internal control to normalize the difference of total RNAs. To calculate the EC50 values of Compound 1 against the resistant cell lines, the relative cycle threshold (CT) for the HCV and GAPDH was determined. […] Identification of the Molecular Target

[5] = tested on: resistant replicon cell lines (w1, w3 and w4); assay: Sensitivity of resistant replicon cell lines, HCV replicon RNA by quantitative RT-PCR; type: cell-based; details: for EC50: Hepatitis C virus, 72 h, HCV replicon RNA by RT-PCR, 72 hours of treatment; for Fold over wild-type: fold of EC50
Description: as §1, §2

[6] = molecular target: T2, NS5B polymerase (Hepatitis C virus genotype 1b, UniProt Q9WMX2, C2735Y); assay: Identification of the molecular target (sequencing of resistant replicons); parameters: species or system HCV; details: eight cDNA clones of three resistant cell lines (w1, w3 and w4)
T2 construct: a single nucleotide change in the region of viral NS5B polymerase; expressed in transfected cells; host or cells: HCV subgenomic replicon cells (parental and Compound 1-resistant lines w1, w3, w4)
T2 sequence (Q9WMX2 2420-3010 C2735Y): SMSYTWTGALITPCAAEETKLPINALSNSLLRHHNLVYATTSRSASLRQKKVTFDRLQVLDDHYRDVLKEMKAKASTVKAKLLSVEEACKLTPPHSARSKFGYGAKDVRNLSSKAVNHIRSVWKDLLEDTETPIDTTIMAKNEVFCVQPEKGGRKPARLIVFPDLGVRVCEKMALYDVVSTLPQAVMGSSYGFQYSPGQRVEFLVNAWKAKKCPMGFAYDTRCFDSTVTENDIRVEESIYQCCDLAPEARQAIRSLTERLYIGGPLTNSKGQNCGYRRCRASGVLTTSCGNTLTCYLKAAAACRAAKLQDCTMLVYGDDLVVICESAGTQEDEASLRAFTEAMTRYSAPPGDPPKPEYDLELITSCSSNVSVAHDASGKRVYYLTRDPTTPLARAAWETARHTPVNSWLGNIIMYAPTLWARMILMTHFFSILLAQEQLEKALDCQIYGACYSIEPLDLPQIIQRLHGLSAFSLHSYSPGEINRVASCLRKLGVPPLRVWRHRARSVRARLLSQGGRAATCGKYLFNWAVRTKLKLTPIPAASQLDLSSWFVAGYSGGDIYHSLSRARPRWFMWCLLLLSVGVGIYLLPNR
Description: To determine the targeted viral gene of Compound 1, total RNA was isolated from the resistant cell lines and from the parental replicon cells. The cDNA fragment encoding the HCV nonstructural proteins (NS3-NS5B) was amplified from the total cellular RNA by using a Thermoscript RT-PCR kit (Invitrogen). The cDNA fragments were cloned into pCR4-TOPO vector by using a TOPO TA cloning kit (Invitrogen). The entire DNA sequence of the HCV nonstructural coding region was determined for multiple independent cDNA clones.
Eight different cDNA clones were generated from three independently cell lines selected by Compound 1 (cell lines w1, w3 and w4) and three cDNA clones from the parental cell line.

[7] = read-out: Range of CC50 in cytotoxicity assay, cytotoxicity, class symbols

Row | Structure (SMILES) | CC50 [1] | EC50 [2] | CC50 [1, 7] | also measured
1 | COC(=O)c1cccc(Nc2s[nH]c(=O)c2C#N)c1 | > 50 µM | > 50 µM |  | 
2 | COC(=O)c1ccccc1Nc1s[nH]c(=O)c1C#N | > 50 µM | > 50 µM |  | 
3 | N#Cc1c(NC23CC4CC(CC(C4)C2)C3)s[nH]c1=O | > 50 µM | 1 to 10 µM |  | 
4 | N#Cc1c(Nc2cccc(Cl)c2Cl)s[nH]c1=O | > 50 µM | > 50 µM |  | 
5 | CC(C)c1ccccc1Nc1s[nH]c(=O)c1C#N | > 50 µM | > 50 µM |  | 
6 | N#Cc1c(Nc2ccc(Cl)c(C(F)(F)F)c2)s[nH]c1=O [drawing 430] | > 50 µM | 1 to 10 µM |  | 
7 | N#Cc1c(Nc2ccccc2Cl)s[nH]c1=O | > 50 µM | 10 to 50 µM |  | 
8 | N#Cc1c(Nc2ccc(I)cc2Cl)s[nH]c1=O |  | 1 to 10 µM | < 50 µM | 
9 | N#Cc1c(Nc2ccc(Br)c(F)c2)s[nH]c1=O |  | < 1 µM | > 50 µM | 
10 | CC(C)c1cccc(C(C)C)c1Nc1s[nH]c(=O)c1C#N | > 50 µM | 10 to 50 µM |  | 
11 | CCCC1CCC(c2ccc(Nc3s[nH]c(=O)c3C#N)cc2)CC1 (stereo not shown) |  | 1 to 10 µM | < 50 µM | 
12 | N#Cc1c(Nc2ccc(Cl)cn2)s[nH]c1=O |  | 10 to 50 µM | > 50 µM | 
13 | COC(=O)c1ccc(Nc2s[nH]c(=O)c2C#N)cc1 |  | 10 to 50 µM | > 50 µM | 
14 | N#Cc1c(O)nsc1Nc1cc(C(F)(F)F)cc(C(F)(F)F)c1 |  |  |  | IC50 [3]: 0.1 to 0.25 µM
15 | N#Cc1c(Nc2ccc(S(=O)(=O)Nc3ccccc3)cc2)s[nH]c1=O | > 50 µM | > 50 µM |  | 
16 | N#Cc1c(Nc2ccc(Br)cn2)s[nH]c1=O |  | 10 to 50 µM | > 50 µM | 
17 | N#Cc1c(Nc2ccnc(Cl)c2)s[nH]c1=O | > 50 µM | 10 to 50 µM |  | 
18 | N#Cc1c(Nc2ccc(Cl)c(Cl)c2)s[nH]c1=O | > 50 µM | < 1 µM |  | 
19 | N#Cc1c(Nc2ccc(C(=O)c3ccccc3)cc2)s[nH]c1=O |  | 10 to 50 µM | > 50 µM | 
20 | N#Cc1c(Nc2ccccc2F)s[nH]c1=O | > 50 µM | 10 to 50 µM |  | 
21 | N#Cc1c(Nc2cc(F)c(Br)c(F)c2)s[nH]c1=O |  | < 1 µM | > 50 µM | 
22 | N#Cc1c(Nc2cc(Cl)c(Cl)c(Cl)c2)s[nH]c1=O | < 50 µM | < 1 µM |  | 
23 | N#Cc1c(Nc2cccc(Br)n2)s[nH]c1=O |  | 10 to 50 µM | > 50 µM | 
24 | COc1ccccc1Nc1s[nH]c(=O)c1C#N | > 50 µM | 10 to 50 µM |  | 
25 | N#Cc1c(Nc2ccc(Cl)cc2Cl)s[nH]c1=O | > 50 µM | 10 to 50 µM |  | 
26 | N#Cc1c(Nc2ccc(Cc3ccccc3)cc2)s[nH]c1=O | > 50 µM | > 50 µM |  | 
27 | N#Cc1c(NCC2CCCCC2)s[nH]c1=O | > 50 µM | 1 to 10 µM |  | 

Row | Structure (SMILES) | CC50 [1] | EC50 [2] | CC50 [1, 7] | also measured
28 | N#Cc1c(NC2CCc3ccccc32)s[nH]c1=O (stereo not shown) | > 50 µM | 1 to 10 µM |  | 
29 | N#Cc1c(Nc2ccc(I)c(Cl)c2)s[nH]c1=O |  | < 1 µM | > 50 µM | 
30 | N#Cc1c(Nc2ccccc2C(F)(F)F)s[nH]c1=O | > 50 µM | 10 to 50 µM |  | 
31 | N#Cc1c(Nc2ccc(I)cc2)s[nH]c1=O | > 50 µM | 1 to 10 µM |  | 
32 | N#Cc1c(NCC2CCCO2)s[nH]c1=O (stereo not shown) | > 50 µM | > 50 µM |  | 
33 | Cc1cccc(C)c1Sc1ccc(Nc2s[nH]c(=O)c2C#N)cc1 |  | 1 to 10 µM | < 50 µM | 
34 | COc1ccc(Nc2s[nH]c(=O)c2C#N)cc1 | > 50 µM | 10 to 50 µM |  | 
35 | N#Cc1c(Nc2ccc(Cl)c(C(F)(F)F)c2)s[nH]c1=O [drawing 483] |  |  |  | IC50 [3]: 0.05 to 0.1 µM
36 | CN(C)c1ccc(Nc2s[nH]c(=O)c2C#N)c2ccccc12 |  | > 50 µM | > 50 µM | 
37 | N#Cc1c(Nc2ccc(Br)c(C(F)(F)F)c2)s[nH]c1=O |  | 1 to 10 µM | > 50 µM | 
38 | N#Cc1c(Nc2cc(C(F)(F)F)cc(C(F)(F)F)c2)s[nH]c1=O |  | 1 to 10 µM | > 50 µM | 
39 | C[C@@]1(O)[C@H](O)[C@@H](CO)O[C@H]1n1cnc2c(N)ncnc21 [2′-C-methyl-adenosine] |  |  |  | EC50 [4]: 0.36 µM; Fold over wild-type [4]: 1; EC50 ([5]; resistant cell line W1): 0.16 µM; EC50 ([5]; resistant cell line W3): 0.26 µM; EC50 ([5]; resistant cell line W4): 0.31 µM; sensitivity of resistant cell lines to inhibition ([5]; cell lines w1, w3, w4 selected with Compound 1): still sensitive to inhibition; Fold over wild-type ([5]; resistant cell line W1): 0.4; Fold over wild-type ([5]; resistant cell line W3): 0.7; Fold over wild-type ([5]; resistant cell line W4): 0.9
40 | N#Cc1c(O)nsc1Nc1ccc(Cl)cc1 |  |  |  | IC50 [3]: 0.05 to 0.1 µM
41 | N#Cc1c(NCCc2cccs2)s[nH]c1=O | > 50 µM | > 50 µM |  | 
42 | N#Cc1c(Nc2ccc(C(=O)O)cc2)s[nH]c1=O | > 50 µM | > 50 µM |  | 
43 | N#Cc1c(Nc2ccc(Br)nc2)s[nH]c1=O | > 50 µM | 10 to 50 µM |  | 
44 | N#Cc1c(Nc2ccc(C(F)(F)F)cn2)s[nH]c1=O | > 50 µM | 10 to 50 µM |  | 
45 | N#Cc1c(Nc2cc(Br)cc(C(F)(F)F)c2)s[nH]c1=O |  | < 1 µM | > 50 µM | 
46 | N#Cc1c(Nc2cc(Cl)nc(Cl)c2)s[nH]c1=O |  | 1 to 10 µM | < 50 µM | 
47 | CN(C)c1ccc2ccccc2c1Nc1s[nH]c(=O)c1C#N |  | > 50 µM | > 50 µM | 
48 | N#Cc1c(Nc2ccc(Br)cc2)s[nH]c1=O |  |  |  | IC50 [3]: < 0.05 µM
49 | N#Cc1c(Nc2cc(Cl)cc(Cl)c2)s[nH]c1=O [Compound 1] |  |  |  | EC50 [4]: 0.07 µM; Fold over wild-type [4]: 1; mutation present in cDNA clones of cell lines selected by the compound [6]: cysteine at position 316 of NS5B polymerase to a tyrosine residue; EC50 ([5]; resistant cell line W1): 3.68 µM; EC50 ([5]; resistant cell line W3): 2.03 µM; EC50 ([5]; resistant cell line W4): 4.62 µM; Fold over wild-type ([5]; resistant cell line W1): 52; Fold over wild-type ([5]; resistant cell line W3): 29; Fold over wild-type ([5]; resistant cell line W4): 66
50 | N#Cc1c(Nc2ccc(Br)c(Cl)c2)s[nH]c1=O | > 50 µM | < 1 µM |  | 
51 | N#Cc1c(O)nsc1Nc1cc(Cl)cc(Cl)c1 |  |  |  | IC50 [3]: < 0.05 µM
52 | N#Cc1c(NCCc2ccc(O)cc2)s[nH]c1=O | > 50 µM | > 50 µM |  | 
53 | N#Cc1c(Nc2ccc(F)cc2)s[nH]c1=O | > 50 µM | 10 to 50 µM |  | 
